According to patent US20230167118A1, “DEGRADATION OF BRUTON'S TYROSINE KINASE (BTK) BY CONJUGATION OF BTK INIDBITORS WITH E3 LIGASE LIGAND AND METHODS OF USE” (BEIGENE, LTD., priority 2020, published 2023):

Key:
BTK = molecular target: T1, BTK (Homo sapiens, UniProt Q06187); assay: Cell Degradation: BTK degradation in TMD-8 cells, HTRF assay; format: cell-based; conditions: 6 h treatment, IC50 (DC50) of BTK degradation
T1 construct: High control=Cell group with added DMSO and without compound, indicating microplate readings without BTK degradation; endogenous in cells; host or cells: TMD-8 cells
Outline: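 TMD-8 cells treated 6 h with 8-dose 6-fold dilutions in 0.2% DMSO, then lysed and BTK quantified by HTRF (665/620 nm). Degradation % normalised to high/low controls; DC50 from four-parameter fit, Dmax as maximal degradation.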

HEK-293 cells = assay: HEK-293 Cytotoxicity Assay (CellTiter-Glo); format: cell-based; conditions: Homo sapiens, HEK293, 72 h incubation, CellTiter-Glo luminescence
Outline: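 HEK-293 cells treated 72 h with 8 concentrations (4-fold dilutions, 0.2% DMSO final). Viability read by CellTiter-Glo luminescence; IC50 from four-parameter logistic fit of % inhibition.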

T1 sequence (Q06187 whole entry): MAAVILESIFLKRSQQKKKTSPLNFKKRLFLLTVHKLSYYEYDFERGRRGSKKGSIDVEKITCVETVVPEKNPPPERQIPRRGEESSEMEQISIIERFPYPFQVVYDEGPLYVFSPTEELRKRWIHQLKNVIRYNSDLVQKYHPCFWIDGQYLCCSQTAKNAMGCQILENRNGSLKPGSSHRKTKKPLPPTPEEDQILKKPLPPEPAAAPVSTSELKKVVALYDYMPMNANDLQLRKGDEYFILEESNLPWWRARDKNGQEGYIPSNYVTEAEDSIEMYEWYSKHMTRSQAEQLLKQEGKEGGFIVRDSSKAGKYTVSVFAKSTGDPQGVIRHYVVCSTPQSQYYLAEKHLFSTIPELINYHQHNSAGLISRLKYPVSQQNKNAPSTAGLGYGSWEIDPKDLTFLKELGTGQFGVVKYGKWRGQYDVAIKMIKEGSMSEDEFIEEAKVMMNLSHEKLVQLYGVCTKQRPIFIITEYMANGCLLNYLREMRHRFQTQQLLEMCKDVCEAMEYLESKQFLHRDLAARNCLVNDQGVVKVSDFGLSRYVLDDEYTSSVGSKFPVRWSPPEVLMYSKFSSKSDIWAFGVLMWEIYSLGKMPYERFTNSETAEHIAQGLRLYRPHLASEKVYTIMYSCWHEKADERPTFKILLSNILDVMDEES

With `CC(C)(C)c1noc(C(=O)NCc2ccc(-c3ncnc4[nH]c(-c5ccc(N6CCN(CC7CCN(c8ccc(N9CCC(=O)NC9=O)cc8)CC7)CC6)cc5)cc34)cc2F)n1` [Example 32, 3-(tert-butyl)-N-(4-(6-(4-(4-((1-(4-(2,4-dioxotetrahydropyrimidin-1(2H)-yl)phenyl)piperidin-4-yl)methyl)piperazin-1-yl)phenyl)-7H-pyrrolo[2,3-d]pyrimidin-4-yl)-2-fluorobenzyl)-1,2,4-oxadiazole-5-carboxamide] the DC50 (BTK) was 1.7 nM and the IC50 (HEK-293 cells) was greater than 10000 nM.
Compound `Cc1cc(CNC(=O)c2ccc(C(C)(C)O)cc2F)c(F)cc1-c1ncnc2[nH]c(-c3ccc(C4CCN(CC5CCN(c6ccc(N7CCC(=O)NC7=O)cc6)CC5)CC4)cc3)cc12` [Example 36, N-(4-(6-(4-(1-((1-(4-(2,4-dioxotetrahydropyrimidin-1(2H)-yl)phenyl)piperidin-4-yl)methyl)piperidin-4-yl)phenyl)-7H-pyrrolo[2,3-d]pyrimidin-4-yl)-2-fluoro-5-methylbenzyl)-2-fluoro-4-(2-hydroxypropan-2-yl)benzamide] has a DC50 (BTK) of 1.5 nM and an IC50 (HEK-293 cells) greater than 10000 nM.
For `Cc1cc(-c2ncnc3[nH]c(-c4ccc(N5CCN([C@H]6C[C@@H](c7ccc(N[C@@H]8CCC(=O)NC8=O)cc7)C6)CC5)nc4)cc23)ccc1[C@@H](C)NC(=O)c1nc(C(C)(C)C)no1` [Example 189, 3-(tert-butyl)-N-((R)-1-(4-(6-(6-(4-((1S,3s)-3-(4-(((R)-2,6-dioxopiperidin-3-yl)amino)phenyl)cyclobutyl)piperazin-1-yl)pyridin-3-yl)-7H-pyrrolo[2,3-d]pyrimidin-4-yl)-2-methylphenyl)ethyl)-1,2,4-oxadiazole-5-carboxamide], the DC50 (BTK) was greater than 2000 nM and the IC50 (HEK-293 cells) was greater than 10000 nM.
`C[C@@H](NC(=O)c1noc(C(C)(C)C)n1)c1ccc(-c2ncnc3[nH]c(-c4ccc(N5CCN(CC6CCN(c7ccc(N8CCC(=O)NC8=O)cc7)CC6)CC5)cc4)cc23)cc1F` [Example 31, (R)-5-(tert-butyl)-N-(1-(4-(6-(4-(4-((1-(4-(2,4-dioxotetrahydropyrimidin-1(2H)-yl)phenyl)piperidin-4-yl)methyl)piperazin-1-yl)phenyl)-7H-pyrrolo[2,3-d]pyrimidin-4-yl)-2-fluorophenyl)ethyl)-1,2,4-oxadiazole-3-carboxamide] showed a DC50 (BTK) of 1.5 nM and an IC50 (HEK-293 cells) greater than 10000 nM.
With `C[C@@H](NC(=O)c1nc(C(C)(C)C)no1)c1ccc(-c2ncnc3[nH]c(-c4ccc(N5CCN(CC6CCN(c7ccc(N8CCC(=O)NC8=O)cc7)CC6)CC5)nc4)cc23)cc1F` [Example 33, (R)-3-(tert-butyl)-N-(1-(4-(6-(6-(4-((1-(4-(2,4-dioxotetrahydropyrimidin-1(2H)-yl)phenyl)piperidin-4-yl)methyl)piperazin-1-yl)pyridin-3-yl)-7H-pyrrolo[2,3-d]pyrimidin-4-yl)-2-fluorophenyl)ethyl)-1,2,4-oxadiazole-5-carboxamide] the DC50 (BTK) was 1.7 nM and the IC50 (HEK-293 cells) was greater than 10000 nM.
For `COc1ccc(C(=O)N2CCC(c3ccc(-c4cc5c(-c6ccc(CNC(=O)c7nc(C(C)(C)C)no7)c(C)c6)ncnc5[nH]4)cc3)CC2)cc1N1CCC(=O)NC1=O` [Example 12, 3-(tert-butyl)-N-(4-(6-(4-(1-(3-(2,4-dioxotetrahydropyrimidin-1(2H)-yl)-4-methoxybenzoyl)piperidin-4-yl)phenyl)-7H-pyrrolo[2,3-d]pyrimidin-4-yl)-2-methylbenzyl)-1,2,4-oxadiazole-5-carboxamide], the DC50 (BTK) was 2 nM and the IC50 (HEK-293 cells) was greater than 10000 nM.
Work on `Cc1cc(-c2ncnc3[nH]c(-c4ccc(C5CN(CC6CCN(c7ccc(N8CCC(=O)NC8=O)cc7)CC6)C5)nc4)cc23)ccc1[C@@H](C)NC(=O)c1nc(C(C)(C)C)no1` [Example 179, (R)-3-(tert-butyl)-N-(1-(4-(6-(6-(1-((1-(4-(2,4-dioxotetrahydropyrimidin-1(2H)-yl)phenyl)piperidin-4-yl)methyl)azetidin-3-yl)pyridin-3-yl)-7H-pyrrolo[2,3-d]pyrimidin-4-yl)-2-methylphenyl)ethyl)-1,2,4-oxadiazole-5-carboxamide] yielded a DC50 (BTK) of 0.74 nM and an IC50 (HEK-293 cells) of 6040 nM.
Compound `Cc1cc(-c2ncnc3[nH]c(-c4ccc(C5(F)CCN(CC6CCN(c7ccc(N8CCC(=O)NC8=O)cc7)CC6)C5)cn4)cc23)ccc1[C@@H](C)NC(=O)c1nc(C(C)(C)C)no1` (stereo partly drawn) [Example 177, 3-(tert-butyl)-N-((1R)-1-(4-(6-(5-(1-((1-(4-(2,4-dioxotetrahydropyrimidin-1(2H)-yl)phenyl)piperidin-4-yl)methyl)-3-fluoropyrrolidin-3-yl)pyridin-2-yl)-7H-pyrrolo[2,3-d]pyrimidin-4-yl)-2-methylphenyl)ethyl)-1,2,4-oxadiazole-5-carboxamide] has a DC50 (BTK) of 0.99 nM and an IC50 (HEK-293 cells) greater than 10000 nM.
Compound `Cc1cc(-c2ncnc3[nH]c(-c4ccc(N5CCN(CC6CCN(c7ccc(N8CCC(=O)NC8=O)c(C)c7)CC6)CC5)nc4)nc23)ccc1[C@@H](C)NC(=O)c1noc(C(C)(C)C)n1` [Example 71, (R)-5-(tert-butyl)-N-(1-(4-(8-(6-(4-((1-(4-(2,4-dioxotetrahydropyrimidin-1(2H)-yl)-3-methylphenyl)piperidin-4-yl)methyl)piperazin-1-yl)pyridin-3-yl)-9H-purin-6-yl)-2-methylphenyl)ethyl)-1,2,4-oxadiazole-3-carboxamide] has a DC50 (BTK) of 0.21 nM and an IC50 (HEK-293 cells) greater than 10000 nM.
In the case of `C[C@@H](NC(=O)c1noc(C(C)(C)C)n1)c1ccc(-c2ncnc3[nH]c(-c4ccc(N5CCN(CC6CCN(c7ccc(N8CCC(=O)NC8=O)cc7)CC6)CC5)nc4)cc23)cc1F` [Example 34, (R)-5-(tert-butyl)-N-(1-(4-(6-(6-(4-((1-(4-(2,4-dioxotetrahydropyrimidin-1(2H)-yl)phenyl)piperidin-4-yl)methyl)piperazin-1-yl)pyridin-3-yl)-7H-pyrrolo[2,3-d]pyrimidin-4-yl)-2-fluorophenyl)ethyl)-1,2,4-oxadiazole-3-carboxamide], the DC50 (BTK) is reported as 1.2 nM and the IC50 (HEK-293 cells) is reported as greater than 10000 nM.
With `CC(C)(C)c1nc(C(=O)N[C@@H]2CCc3cc(-c4ncnc5[nH]c(-c6ccc(N7CCN(CC8CCN(c9ccc(N%10CCC(=O)NC%10=O)cc9)CC8)CC7)cc6)cc45)ccc32)no1` [Example 156, (R)-5-(tert-butyl)-N-(5-(6-(4-(4-((1-(4-(2,4-dioxotetrahydropyrimidin-1(2H)-yl)phenyl)piperidin-4-yl)methyl)piperazin-1-yl)phenyl)-7H-pyrrolo[2,3-d]pyrimidin-4-yl)-2,3-dihydro-1H-inden-1-yl)-1,2,4-oxadiazole-3-carboxamide] the DC50 (BTK) was 2.43 nM and the IC50 (HEK-293 cells) was greater than 10000 nM.
With `Cc1cc(-c2ncnc3[nH]c(-c4ccc(N5CCN(CC6CCN(c7ccc(N8CCC(=O)NC8=O)cc7)CC6)CC5)cn4)cc23)ccc1[C@@H](C)NC(=O)c1nc(C2(C)CC2)no1` [Example 165, (R)-N-(1-(4-(6-(5-(4-((1-(4-(2,4-dioxotetrahydropyrimidin-1(2H)-yl)phenyl)piperidin-4-yl)methyl)piperazin-1-yl)pyridin-2-yl)-7H-pyrrolo[2,3-d]pyrimidin-4-yl)-2-methylphenyl)ethyl)-3-(1-methylcyclopropyl)-1,2,4-oxadiazole-5-carboxamide] the DC50 (BTK) was 0.69 nM and the IC50 (HEK-293 cells) was greater than 10000 nM.
In the case of `Cc1cc(-c2ncnc3[nH]c(-c4ccc(N5CCN(CC6CCN(c7ccc(C8CCC(=O)NC8=O)cc7)CC6)CC5)cc4)cc23)ccc1[C@@H](C)NC(=O)c1nc(C(C)(C)C)no1` (stereo partly drawn) [Example 55, (R)-3-(tert-butyl)-N-(1-(4-(6-(4-(4-((1-(4-(2,6-dioxopiperidin-3-yl)phenyl)piperidin-4-yl)methyl)piperazin-1-yl)phenyl)-7H-pyrrolo[2,3-d]pyrimidin-4-yl)-2-methylphenyl)ethyl)-1,2,4-oxadiazole-5-carboxamide], the DC50 (BTK) is reported as 3.2 nM and the IC50 (HEK-293 cells) is reported as greater than 10000 nM.
`Cc1cc(-c2ncnc3[nH]c(-c4ccc(C5CCN(CCC6CCN(c7ccc(N8CCC(=O)NC8=O)cc7)CC6)CC5)cc4)cc23)ccc1CNC(=O)c1nc(C(C)(C)C)no1` [Example 3, 3-(tert-butyl)-N-(4-(6-(4-(1-(2-(1-(4-(2,4-dioxotetrahydropyrimidin-1(2H)-yl)phenyl)piperidin-4-yl)ethyl)piperidin-4-yl)phenyl)-7H-pyrrolo[2,3-d]pyrimidin-4-yl)-2-methylbenzyl)-1,2,4-oxadiazole-5-carboxamide] showed a DC50 (BTK) of 3.8 nM and an IC50 (HEK-293 cells) of 1700 nM.
`Cc1cc(-c2ncnc3[nH]c(-c4ccc(N5CCN(CC6CCN(c7ccc(N8CCC(=O)NC8=O)cc7)CC6)CC5)nc4)cc23)ccc1[C@@H](C)NC(=O)c1nc(C2(C)CC2)no1` [Example 166, (R)-N-(1-(4-(6-(6-(4-((1-(4-(2,4-dioxotetrahydropyrimidin-1(2H)-yl)phenyl)piperidin-4-yl)methyl)piperazin-1-yl)pyridin-3-yl)-7H-pyrrolo[2,3-d]pyrimidin-4-yl)-2-methylphenyl)ethyl)-3-(1-methylcyclopropyl)-1,2,4-oxadiazole-5-carboxamide] gave a DC50 (BTK) of 1.61 nM and an IC50 (HEK-293 cells) greater than 10000 nM.
`Cc1cc(-c2ncnc3[nH]c(-c4ccc(C5=CCN(CC6CCN(c7ccc(N8CCC(=O)NC8=O)cc7)CC6)C5)nc4)cc23)ccc1[C@@H](C)NC(=O)c1nc(C(C)(C)C)no1` [Example 159, (R)-3-(tert-butyl)-N-(1-(4-(6-(6-(1-((1-(4-(2,4-dioxotetrahydropyrimidin-1(2H)-yl)phenyl)piperidin-4-yl)methyl)-2,5-dihydro-1H-pyrrol-3-yl)pyridin-3-yl)-7H-pyrrolo[2,3-d]pyrimidin-4-yl)-2-methylphenyl)ethyl)-1,2,4-oxadiazole-5-carboxamide] showed a DC50 (BTK) of 0.93 nM and an IC50 (HEK-293 cells) greater than 10000 nM.
